Test results as given in PubChem BioAssay (NCI).
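96-well plates; 48 h exposure; 5 concentrations. Endpoints by linear interpolation between flanking doses. Not reached: highest tested concentration assigned. Definition used: TGI = concentration required for complete inhibition of growth.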

Key:
Test in all cases: NCI anticancer screen, dose series, 48 h
HCC-2998 colon = test system: HCC-2998 colon
HCT-116 colon = test system: HCT-116 colon
HCT-15 colon = test system: HCT-15 colon
HOP-92 NSCLC = test system: HOP-92 NSCLC
HT29 colon = test system: HT29 colon
KM12 colon = test system: KM12 colon
NCI-H460 lung = test system: NCI-H460 lung
SK-MEL-28 melanoma = test system: SK-MEL-28 melanoma
SK-MEL-5 melanoma = test system: SK-MEL-5 melanoma
SW-620 colon = test system: SW-620 colon
T-47D breast = test system: T-47D breast
TK-10 renal = test system: TK-10 renal
MDA-MB-435 = test system: MDA-MB-435
MDA-N = test system: MDA-N
NCI-H522 lung = test system: NCI-H522 lung
OVCAR-3 ovarian = test system: OVCAR-3 ovarian
RPMI-8226 leukemia = test system: RPMI-8226 leukemia
SNB-75 CNS = test system: SNB-75 CNS

SMILES	TGI (HCC-2998 colon)	TGI (HCT-116 colon)	TGI (HCT-15 colon)	TGI (HOP-92 NSCLC)	TGI (HT29 colon)	TGI (KM12 colon)	TGI (NCI-H460 lung)	TGI (SK-MEL-28 melanoma)	TGI (SK-MEL-5 melanoma)	TGI (SW-620 colon)	TGI (T-47D breast)	TGI (TK-10 renal)	TGI (MDA-MB-435)	TGI (MDA-N)	TGI (NCI-H522 lung)	TGI (OVCAR-3 ovarian)	TGI (RPMI-8226 leukemia)	TGI (SNB-75 CNS)
COc1cc2c(c(N)c1OC)C(=O)/C(=C/c1cc(C)c(O)c(C)c1)C2	> 100 µM	2.24 µM	> 100 µM	> 100 µM	> 100 µM	1.82 µM	> 57.8 µM	> 100 µM	> 32.7 µM	> 100 µM	> 100 µM	> 100 µM						
Cc1nc2c(O)cccc2c(=O)[nH]1	> 1000 µM	> 1000 µM	> 1000 µM	> 1000 µM	> 1000 µM	> 1000 µM	> 1000 µM	> 1000 µM		> 1000 µM		> 1000 µM	> 1000 µM	> 1000 µM	> 1000 µM	> 1000 µM	> 1000 µM	> 1000 µM
COc1ccc(N2C(=O)CSC2c2cc3cc(Br)ccc3nc2Cl)cc1 (centres undefined)	> 50 µM	> 50 µM	> 50 µM	> 50 µM	> 50 µM	> 50 µM	> 50 µM	> 50 µM	> 50 µM	> 50 µM	> 50 µM	> 50 µM	> 50 µM		> 50 µM	> 50 µM	> 50 µM	> 50 µM
NCCCCC(N)C(=O)N1CCN(c2nc(N3CCCC3)c3nc(Cl)c(NCc4ccccc4)nc3n2)CC1 (centres undefined)	34.7 µM	32.1 µM	35.2 µM	25.8 µM	38 µM	47.2 µM	34.4 µM	40.5 µM	34.1 µM	47.7 µM		35.6 µM	46.6 µM	33.7 µM	42.1 µM	36.9 µM	44.4 µM	32.9 µM
Nc1ncnc2c1ncn2[C@@H]1C[C@H]1CO	> 100 µM	> 100 µM	> 100 µM		> 100 µM	> 100 µM	> 100 µM			> 100 µM	> 100 µM			> 100 µM	> 100 µM	> 100 µM	> 100 µM	
C=C[C@@]1(C)CC2CC[C@]3(C)C(C)=CC(=O)CC3[C@]2(C)CC1O (some centres undefined)	> 100 µM	> 100 µM	> 100 µM	> 100 µM	> 100 µM	> 100 µM	> 100 µM	> 100 µM	> 100 µM	> 100 µM	> 100 µM	> 100 µM	> 100 µM		74.4 µM	> 100 µM	> 100 µM	
CC(C)=CCC/C(C)=C/CC/C(C)=C/CC/C=C(\C)CC/C=C(\C)CCC1SC1(C)C (centres undefined)	> 100 µM	> 100 µM	> 100 µM	> 100 µM	> 100 µM	> 100 µM	> 100 µM	> 100 µM	> 100 µM	> 100 µM		> 100 µM			> 100 µM		> 100 µM	> 100 µM
CNc1nnnn1C1OC(CO)C(O)C1O (centres undefined)	> 100 µM	> 100 µM	> 100 µM		> 100 µM	> 100 µM	> 100 µM		> 100 µM	> 100 µM		> 100 µM			> 100 µM	> 100 µM	> 100 µM	> 100 µM
Cc1ccc(-c2c(C#N)c(-c3ccc([N+](=O)[O-])cc3)c(C#N)c(=O)n2NS(=O)(=O)c2ccc(C)cc2)cc1	> 100 µM	> 100 µM	> 100 µM	> 100 µM	> 100 µM	> 100 µM	> 100 µM	> 100 µM	48.7 µM	> 100 µM		> 100 µM	> 100 µM	> 100 µM	> 100 µM	> 100 µM	47 µM	> 100 µM
COC(=O)C(/C(=N/N)C(=O)Nc1ccc(C)c(C)c1)c1nc2ccc(Cl)cc2[nH]c1=O (centres undefined)	> 100 µM	> 100 µM	> 100 µM	> 100 µM	> 100 µM	> 100 µM	> 100 µM	> 100 µM	> 100 µM	> 100 µM	> 100 µM	> 100 µM	> 100 µM		> 100 µM	> 100 µM	> 100 µM	> 100 µM
Cc1ccccc1N=Cc1ccc(N(CCC#N)S(=O)(=O)c2ccccc2)cc1	> 100 µM	> 100 µM	> 100 µM	> 100 µM	> 100 µM	> 100 µM	> 100 µM	> 100 µM	> 100 µM	> 100 µM		> 100 µM			> 100 µM	> 100 µM	> 100 µM	> 100 µM
Cn1c(=O)oc2cc(C(=S)N3CCC(Cc4ccccc4)CC3)ccc21		> 100 µM	> 100 µM		> 100 µM	> 100 µM	> 100 µM	> 100 µM	> 100 µM	> 100 µM		> 100 µM	> 100 µM	> 100 µM		> 100 µM	> 100 µM	> 100 µM
O=C(O)Cn1nnc2c(=O)[nH][nH]c(=O)c21	> 100 µM	> 100 µM	> 100 µM	> 100 µM	> 100 µM	> 100 µM	> 100 µM	> 100 µM	> 100 µM			> 100 µM	> 100 µM	> 100 µM		> 100 µM	> 100 µM	
CC1=NN(c2nc(N)nc(C(C)Sc3cc(Cl)c(C)cc3S(N)(=O)=O)n2)C(C)(C)C1 (centres undefined)	> 10 µM	> 10 µM	> 10 µM	> 10 µM	> 10 µM	> 10 µM	> 10 µM	> 10 µM	> 10 µM	> 10 µM	> 10 µM	> 10 µM		> 10 µM	> 10 µM	> 10 µM	> 10 µM	> 10 µM
COC(=O)c1ccccc1/C=C1\Cc2cc3c(cc2C1=O)CCC3	> 100 µM	> 100 µM	> 100 µM		> 100 µM	> 100 µM	> 100 µM	> 100 µM	> 100 µM	> 100 µM	> 100 µM	> 100 µM		78.8 µM	> 100 µM	> 100 µM	> 100 µM	> 100 µM
Cc1ccc(S(=O)(=O)c2c(N)c3nccn3c3nc4ccccc4nc23)cc1	> 100 µM	> 100 µM	> 100 µM	> 100 µM		> 100 µM	> 100 µM	> 100 µM	> 100 µM	> 100 µM		> 100 µM			> 100 µM	> 100 µM	> 100 µM	> 100 µM
CC1(C)N(OC2CCCCO2)C(c2ccccc2)C(c2ccccc2)=[N+]1[O-] (centres undefined)	> 100 µM	> 100 µM	> 100 µM	> 100 µM	> 100 µM	> 100 µM	> 100 µM	> 100 µM	> 100 µM	> 100 µM		> 100 µM		> 100 µM		> 100 µM		> 100 µM
CC1=C2C(=O)C3[C@@H](CCC4=CC(=O)CC[C@@]43C)C2CC[C@]12O[C@@H]1C[C@H](C)CN[C@H]1[C@H]2C (some centres undefined)	> 100 µM	> 100 µM	> 100 µM	> 100 µM	> 100 µM	> 100 µM	> 100 µM	> 100 µM	> 100 µM	> 100 µM		98.7 µM			37.1 µM	> 100 µM	49.7 µM	> 100 µM
CC(=O)O[C@H]1C(=O)[C@@]2(C)[C@H]([C@H](OC(=O)c3ccccc3)[C@]3(O)C[C@H](OC(=O)[C@H](O)[C@@H](NC(=O)c4ccccc4)C4CCCCC4)C(C)=C1C3(C)C)[C@]1(OC(C)=O)CO[C@@H]1C[C@@H]2O	16.4 µM	> 44.9 µM	> 51.1 µM	64.1 µM	17.5 µM	37.1 µM	15.3 µM	> 100 µM	14.9 µM	> 100 µM	93.7 µM	37.4 µM			0.011 µM	< 0.01 µM	19.2 µM	
O=C1C=C(c2c(-c3ccccc3)[nH]c3ccccc23)C(=O)N1c1ccccc1	20.8 µM	19.6 µM	23.8 µM	30.6 µM	29.7 µM		35.3 µM	68.7 µM	20.9 µM	18.4 µM		30.3 µM	24.6 µM	15.7 µM		15.8 µM	> 100 µM	
Cc1ccc(C2(C)NC(=S)N(NC(N)=S)C2=S)cc1 (centres undefined)	> 100 µM	> 100 µM	> 100 µM				> 100 µM	> 100 µM	> 100 µM	> 100 µM		> 100 µM				> 100 µM	> 100 µM	> 100 µM
Cc1ccc(S(=O)(=O)NC(=O)C2(Br)S(=O)(=O)OCCOS2(=O)=O)cc1	> 100 µM	> 100 µM	> 100 µM	> 100 µM	> 100 µM		> 100 µM	> 100 µM	> 100 µM			> 100 µM			> 100 µM	> 100 µM	> 100 µM	> 100 µM
O=c1n(CCCN2CCN(c3cccc(Cl)c3)CC2)nc2n1-c1ccc3ccccc3c1SC2		> 100 µM	> 100 µM	> 100 µM	> 100 µM	> 100 µM	> 100 µM	> 100 µM	> 100 µM	> 100 µM		> 100 µM	> 100 µM	> 100 µM	> 100 µM	> 100 µM	> 100 µM	> 100 µM
